Measurements taken from ChEMBL document CHEMBL1152283, “Design at the atomic level: generation of novel hybrid biaryloxazolidinones as promising new antibiotics” (Bioorg Med Chem Lett, 2008).
≈ marks a conversion by molar mass, not a printed value.

Columns and labels:
Streptococcus pyogenes = assay: Antimicrobial activity against Streptococcus pyogenes Msr 610 expressing erm(B) gene by NCCLS method; format: functional
Haemophilus influenzae [1] = assay: Antimicrobial activity against Haemophilus influenzae 895 (AcrB-KO) by NCCLS method; format: functional
Haemophilus influenzae [2] = assay: Antimicrobial activity against Haemophilus influenzae RD1 by NCCLS method; format: functional
Enterococcus faecalis = assay: Antimicrobial activity against linezolid-resistant Enterococcus faecalis P5 by NCCLS method; format: functional
Streptococcus pneumoniae = assay: Antimicrobial activity against Streptococcus pneumoniae 02J1175 expressing mef(A) gene by NCCLS method; format: functional
Escherichia coli [3] = assay: Inhibition of protein synthesis in Escherichia coli by translation assay
Escherichia coli [4] = assay: Inhibition of protein synthesis in Escherichia coli S30 extract by translation assay; format: functional

Compound: CC(=O)NC[C@H]1CN(c2ccc(-c3ccc(CNC(=O)CCc4cccnc4)cc3)c(F)c2)C(=O)O1
- MIC (Streptococcus pyogenes): 0.5 µg/mL (≈ 1.02 µM)
- MIC (Haemophilus influenzae [1]): 2 µg/mL (≈ 4.08 µM)
- MIC (Haemophilus influenzae [2]): > 128 µg/mL
- MIC (Enterococcus faecalis): 16 µg/mL (≈ 32.6 µM)
- MIC (Streptococcus pneumoniae): 0.5 µg/mL (≈ 1.02 µM)
- IC50 (Escherichia coli [3]): 580 nM

Compound: CC(=O)NC[C@H]1CN(c2ccc(/C=C/CCCNC(=O)/C=C/c3c(C)[nH]c(=O)[nH]c3=O)c(F)c2)C(=O)O1
- MIC (Streptococcus pyogenes): 1 µg/mL (≈ 1.95 µM)
- MIC (Haemophilus influenzae [1]): 1 µg/mL (≈ 1.95 µM)
- MIC (Haemophilus influenzae [2]): > 128 µg/mL
- MIC (Enterococcus faecalis): 32 µg/mL (≈ 62.3 µM)
- MIC (Streptococcus pneumoniae): 1 µg/mL (≈ 1.95 µM)
- IC50 (Escherichia coli [3]): 30 nM

Compound: CC(=O)NC[C@H]1CN(c2ccc(N3CCC(CNC(=O)/C=C/c4c(C)[nH]c(=O)[nH]c4=O)CC3)c(F)c2)C(=O)O1
- MIC (Streptococcus pyogenes): 4 µg/mL (≈ 7.37 µM)
- IC50 (Escherichia coli [4]): 260 nM
- MIC (Haemophilus influenzae [1]): 8 µg/mL (≈ 14.7 µM)
- MIC (Haemophilus influenzae [2]): > 128 µg/mL
- MIC (Streptococcus pneumoniae): 4 µg/mL (≈ 7.37 µM)

Compound: CC(=O)NC[C@H]1CN(c2ccc(N3CCOCC3)c(F)c2)C(=O)O1 [LINEZOLID]
- MIC (Streptococcus pyogenes): 1 µg/mL (≈ 2.96 µM)
- MIC (Haemophilus influenzae [1]): 8 µg/mL (≈ 23.7 µM)
- MIC (Haemophilus influenzae [2]): 16 µg/mL (≈ 47.4 µM)
- MIC (Enterococcus faecalis): 32 µg/mL (≈ 94.9 µM)

Compound: CSC[S@@+]([O-])CC(CO)NC(=O)/C=C/c1c(C)[nH]c(=O)[nH]c1=O (some centres undefined) [SPARSOMYCIN]
- MIC (Streptococcus pyogenes): 2 µg/mL (≈ 5.53 µM)
- MIC (Haemophilus influenzae [1]): 8 µg/mL (≈ 22.1 µM)
- MIC (Haemophilus influenzae [2]): 8 µg/mL (≈ 22.1 µM)
- MIC (Enterococcus faecalis): > 128 µg/mL
- MIC (Streptococcus pneumoniae): 2 µg/mL (≈ 5.53 µM)
- IC50 (Escherichia coli [3]): ≤ 20 nM

Compound: CC(=O)NC[C@H]1CN(c2ccc(-c3ccc(CNC(=O)/C=C/c4c(C)[nH]c(=O)[nH]c4=O)cc3)c(F)c2)C(=O)O1
- MIC (Streptococcus pyogenes): ≤ 0.25 µg/mL
- MIC (Haemophilus influenzae [1]): ≤ 0.25 µg/mL
- MIC (Haemophilus influenzae [2]): > 128 µg/mL
- MIC (Enterococcus faecalis): 16 µg/mL (≈ 29.9 µM)
- MIC (Streptococcus pneumoniae): ≤ 0.25 µg/mL
- IC50 (Escherichia coli [3]): 30 nM

Compound: CC(=O)NC[C@H]1CN(c2ccc(/C=C/CCCNC(=O)CCc3cccnc3)c(F)c2)C(=O)O1
- MIC (Streptococcus pyogenes): 2 µg/mL (≈ 4.27 µM)
- MIC (Haemophilus influenzae [1]): 8 µg/mL (≈ 17.1 µM)
- MIC (Haemophilus influenzae [2]): > 128 µg/mL
- MIC (Enterococcus faecalis): 32 µg/mL (≈ 68.3 µM)
- MIC (Streptococcus pneumoniae): 2 µg/mL (≈ 4.27 µM)
- IC50 (Escherichia coli [3]): 16000 nM
